Earlier results in patent US20220023301A1, “METHODS OF TREATING AUTOIMMUNE DISEASES WITH SMALL MOLECULE NF-kB INHIBITORS” (ImmuneTarget, Inc., priority 2020, published 2022).

Test system: cuprizone induced neuroinflammation mouse model

## CC(C)[C@]12O[C@H]1[C@@H]1O[C@]13[C@]1(O[C@H]1C[C@H]1C4=C(CC[C@@]13C)C(=O)OC4)[C@@H]2O [Triptolide]
0.125 mg/kg administered intraperitoneally daily
  motor function and motor coordination compared to control group: improves motor function and motor coordination
0.125 mg/kg dose
  Bax/Bcl-2 ratio: reduce Bax/Bcl-2 ratio
  behavioral deficits: improve behavioral deficits
  number of OLGs precursor cells (NG-2+/O4+): raise the number of OLGs precursor cells
